Measurements published in a melting point compilation (Tetko et al.; mined from patent text by program, amines drawn as free bases though some values may be those of a salt).

| Structure (SMILES) | melting point |
| --- | --- |
| COCCOc1cc(-n2c(=O)cc(C(F)(F)F)n(C)c2=O)c(F)cc1Cl | 84 to 87 °C |
| COC(=O)c1c(C(F)F)nc(C(F)(F)F)c(C(=O)OC)c1CI | 78 to 79 °C |
| Cn1c(C(F)(F)F)cc(=O)n(-c2c(F)ccc3nc(Cl)sc23)c1=O | 69 to 71 °C |
| CS(=O)(=O)c1ccc(-c2cnn(CC(F)(F)F)c(=O)c2OCCN2CCCCC2)cc1 | 117 to 118 °C |
| CCn1ncc(C(=O)c2ccc(S(C)(=O)=O)c(Cl)c2Cl)c1O | 198 to 200 °C |
| CNC(=O)n1cc(Br)cnc1=O | 236 to 238 °C |
| CCOc1ccc(N=c2ccn3ccccc3c2)cc1 | 157 to 159 °C |
| CC(C)(C)OC(=O)N(CCO)C1CCN(c2ccc3c(NC(=O)CC4CCCCC4)c(Cl)ccc3n2)C1 (stereo not given) | 115 to 120 °C |
| CC(=O)COc1cc(-n2c(=O)cc(C(F)(F)F)n(C)c2=O)c(F)cc1Cl | 164 to 166 °C |
| c1cnc2ccc(Cn3nnc4ccc(-c5ccc6[nH]ccc6c5)nc43)cc2c1 | 120 to 122 °C |
| CC1(C)CC(N2CCCC2)=CC(=C(C#N)C(O)C#N)C1 (stereo not given) | 246 to 247 °C |
| CC(C)CCn1cc(C(=O)O)c2ccc(Cl)cc21 | 53 to 55 °C |
| OCCOc1ccc(Cn2ccnc2)cc1 | 81 to 82 °C |
| Cc1oc(-c2ccccc2)nc1CCOc1ccc(C[C@H](NC(=O)C=Cc2cccc(C(F)(F)F)c2)C(=O)O)cc1 | 214 to 216 °C |
| CCC(C)(C)c1ccc(OCCCNC(=O)c2cc(OCCS(=O)(=O)CC)c3ccccc3c2O)c(C(C)(C)CC)c1 | 155 to 157 °C |
| COc1ccc(CCc2ccncc2NC(=O)c2ccccc2)cc1OC1CCCC1 | 50 to 51 °C |
| CCOC(=O)c1cn(Cc2ccc(Oc3ccccc3)cc2)nc1OCc1ccc(OCc2nc(-c3ccco3)oc2C)c(OC)c1 | 98 to 99 °C |
| CNc1ccccc1C(=O)NCCCn1cncn1 | 131 to 133 °C |
| O=C(O)c1ccccc1NCCCc1ccccc1 | 103 to 105 °C |
| Clc1ccc(C#CCBr)cc1 | 41 to 43 °C |
| CC(=O)Nc1ccc(C(=O)NCc2ccc(-n3c(-c4cccnc4N)nc4cc(C)cnc43)cc2)cc1 | 171 to 172 °C |
| O=C(c1cc(-c2ccccc2)c(=O)n2c1-c1ccccc1C2)N1CC(O)C1 | 238 to 242 °C |
| CCCc1c2nc(C(=O)OC)cc(Cl)c2cc2c(=O)cc(C(=O)OCC)oc12 | 176 to 178 °C |
| CS(=O)(=O)c1ccc(C(Cc2ccc(F)cc2)C(=O)Nc2nc3ncccc3o2)cc1 (stereo not given) | 261 to 264 °C |
| CN(C)c1ncc(-c2cccnc2)cn1 | 295 °C |

| Structure (SMILES) | melting point |
| --- | --- |
| O=C(O)C1SC(c2ccccc2)=NN1C(=O)CCS (stereo not given) | 145 to 146 °C |
| O=C(O)Cc1c(C(=O)c2cccc(O)c2)[nH]c2cc(Cl)ccc12 | 213 to 215 °C |
| CCOC(=O)C1=C(C)NC(CSCC2CO2)=C(C(=O)OCC)C1c1cccc([N+](=O)[O-])c1 (stereo not given) | 107 to 109 °C |
| CS(=O)(=O)c1ccc(C(=O)C(C#N)C(=O)C2CC2)c(Cl)c1-c1nccs1 (stereo not given) | 162 to 164 °C |
| CC(C)CNCc1cc2cc(NC(=O)c3ccc(OC[C@@H]4CCCO4)cc3)ccc2n1C | 132 to 133 °C |
| N#Cc1nn(-c2c(Cl)cc(C(F)(F)F)cc2Cl)c(N)c1-c1cccnc1 | 265 to 267 °C |
| CN1Cc2c(-c3nnc(CN)o3)ncn2-c2ccsc2C1=O | 217 to 219 °C |
| Cc1ccc2c(c1)N(C(=O)NCCN1CCC(CCCN(C(C)C)C(C)C)CC1)c1ncccc1NC2=O | 160 to 162 °C |
| N#Cc1cc(NC(=O)c2cc3ccccc3s2)ccc1N1CCN(CCO)CC1 | 238 to 239 °C |
| COCCOc1ccc(OCC(O)CNCCNC(=O)N2CCOCC2)cc1 (stereo not given) | 69 °C |
| COc1cc2c3c(c1)-c1c(O)cccc1CC3N(C)CC2 (stereo not given) | 214 to 215 °C |
| CCOC(=O)/C=C/c1cn(-c2ccc(C(F)(F)F)cc2)nc1C(C)C | 118 to 119 °C |
| CNC(=O)c1ccnc([N+](=O)[O-])c1 | 131 to 133 °C |
| Cc1c(C)c(O)c(CN(C)C)c(C)c1O | 103 to 108 °C |
| O=C(O)c1ccc(OCCCCCCc2cccc(O)c2O)cc1O | 179 to 180 °C |
| Cc1c(Cl)c(Oc2c(Cl)cc(C(F)(F)F)cc2Cl)nn1C(=O)NC(C)C | 109 to 111 °C |
| Cc1cccc(-n2nc(C)c3c(=O)c4ccccc4[nH]c32)n1 | 252 °C |
| O=C(c1ccc(Cl)cc1)C(Br)CCCl (stereo not given) | 73 °C |
| Cc1c(-c2ccc(OCC(=O)O)cc2)oc(=O)c(Sc2ccccc2)c1O | 194 to 197 °C |
| Cc1cc(=O)n(-c2cc(OC(C)C)c(Cl)cc2F)c(=O)n1C(F)F | 97 to 99 °C |
| Cc1[nH]c2ccc(F)cc2c1C(=O)NC1CCN(Cc2ccccc2)CC1 | 166 to 169 °C |
| COc1ccc2c(c1)c(Cc1nc(-c3ccc([N+](=O)[O-])cc3)cs1)c(C)n2C(=O)c1ccc(Cl)cc1 | 219 °C |
| CCCCCCCCCCCCCCOc1ccc(C(=O)N(Cc2ccccn2)C(C)=O)cc1 | 68 to 70 °C |
| NC(=O)c1nc(-c2cncc(Cl)c2)nc2c1[nH]c(=O)n2-c1ccccc1C(F)(F)F | 230 to 232 °C |
| COc1cc(-n2cccn2)ccc1-n1cc(OC)c(=O)c(-c2ccnn2-c2cccc(Cl)c2)n1 | 167 to 168 °C |

| Structure (SMILES) | melting point |
| --- | --- |
| O=C(OCN1C(=O)c2ccccc2C1=O)c1ccccc1[N+](=O)[O-] | 159 to 160 °C |
| CCOC(=O)CCCCOc1cccc(O)c1C=O | 32 to 33 °C |
| Cc1ccccc1C(=O)Nc1cccc(C(C)C)c1 | 70 to 71 °C |
| O=C(NOCCO)c1ccc(F)c(F)c1Nc1ccc(I)cc1Cl | 173 to 175 °C |
| COc1ccc(-n2cnc(-c3cc(OC)c(OC)c(OC)c3)c2-c2ccc(OC)c(O)c2)cc1 | 65 to 67 °C |
| COc1ccc(C(=O)Nc2ccc(F)cc2)cc1NC(=S)Nc1ccc(C(=O)O)cc1 | 203 to 205 °C |
| CCC(Oc1ccc(C(C)(C)CC)cc1C(C)(C)CC)C(=O)O (stereo not given) | 89 °C |
| c1coc(-c2ccc(-c3cn([C@H]4CN5CCC4CC5)nn3)s2)c1 | 180 °C |
| Cc1cc(NC(=O)c2cnn(-c3ccc(C(F)(F)F)cc3)c2C)ccc1N1CCC(N2CCOCC2)CC1 | 252 to 255 °C |
| COC(C)=Nc1nc[nH]c1C#N | 147 to 149 °C |
| CCN(CC)CC(O)c1cccc2c(C)c(C)oc12 (stereo not given) | 138 to 142 °C |
| Cc1c(C)c(C)c2c(c1C)C=CC(C)(COc1ccc([N+](=O)[O-])cc1)O2 (stereo not given) | 142 to 145 °C |
| CCn1ncc2c3onc(-c4ccc(Cl)cc4)c3cnc21 | 195 to 197 °C |
| O=S(=O)(Oc1ccc(C2(c3ccc(OS(=O)(=O)c4ccccc4)cc3)c3ccccc3-c3ccccc32)cc1)c1ccccc1 | 225 to 226 °C |
| COc1ccc(C(=O)c2c(C)cc(NC(C)(C)C)nc2NC(C)(C)C)cc1 | 127 to 129 °C |
| COc1c(Sc2ccccc2)c2cccnc2n1-c1ccccc1 | 86 to 87.5 °C |
| O=C(c1cc(-c2ccccc2)c(=O)n2c1-c1ccccc1CN2)N1CCOCC1 | 254 to 257 °C |
| CCc1nn(C)c(N)c1Cl | 50 to 51 °C |
| CCCCc1nc2sccc2[nH]1 | 160 °C |
| COCC1OC(=O)NC1c1ccccc1OC(C)(O)C1CCCCC1 (stereo not given) | 87 °C |
| O=c1cc(-c2ccncc2)nc2[nH]c3ccccc3n12 | 300 to 302 °C |
| CCC(C)CNC(=O)c1cc(NC(=O)OCc2ccccc2)cc(C(=O)NCC(C)CC)c1 (stereo not given) | 130 to 132 °C |
| CC(C)COc1ccccc1C(N)=O | 125 to 128 °C |
| CC(C)CNCc1ccc(S(=O)(=O)c2ccc(S(N)(=O)=O)s2)cc1 | 198 to 200 °C |
| Nc1ccc([N+](=O)[O-])cc1OCCCCOc1cc([N+](=O)[O-])ccc1N | 226 to 228 °C |

| Structure (SMILES) | melting point |
| --- | --- |
| CCc1ccc(OC)c(-c2csc(NC(=O)c3ccc(C(=O)NCCN4CCCC4)cc3)n2)c1 | 170 °C |
| COC(=O)CCCCC(NC(=O)c1ccccc1)C(C)=O (stereo not given) | 59 to 60 °C |
| CCOCOC1CCC2(C)C(C1)C(=O)CC1C2CCC2(C)C1CC1OC3(CCC(C)CO3)C(C)C12 (stereo not given) | 191 to 193 °C |
| Cc1ccc(C(C)(C)C)c(SC2=C(O)CC(CCc3ccccc3)(CCC(C)C)OC2=O)c1 (stereo not given) | 46 to 50 °C |
| O=C1N(CCCCN2CCN(C3=NS(=O)(=O)c4ccccc43)CC2)CSC12CCCC2 | 137 to 140 °C |
| Nc1ccccc1OCCCCCN1CCC(OC(c2ccccc2)c2ccccc2)CC1 | 80 to 81 °C |
| Cc1ccc(-c2c(C(=O)Nc3nccs3)nc(-c3cccc4ccccc34)n2C)cc1 | 251 to 252 °C |
| COc1ccc(Cl)c(CC(Nc2nc3ccc(Cl)cc3cc2C(=O)O)C(=O)O)c1 (stereo not given) | 180 to 185 °C |
| CCCCCCCCCN=C=O | 104 to 105 °C |
| CCOC(=O)c1cccc(OCCCC2CCN(c3ccc(Cl)nn3)CC2)c1 | 105 °C |
| CCCOc1ccccc1-c1nc(C=O)c[nH]1 | 104 to 105 °C |
| O=C(c1ccccc1)c1ccc(Cl)cc1Cl | 41 to 43 °C |
| CC(C)C12COc3cc(Cl)ccc3C1=NN(C(=O)Nc1ccc(C(F)(F)F)cc1)C2 (stereo not given) | 150 to 152 °C |
| CCOC(=O)c1sc(-n2cnn(CC3CC3(F)F)c2=O)nc1C (stereo not given) | 146 to 148 °C |
| C=C1[C@H](CO)[C@H](O)[C@H](O)[C@H]1OCc1ccccc1 | 122 to 124 °C |
| Cc1cccc(CCOc2ccc(CC3SC(=O)NC3=O)cc2)n1 (stereo not given) | 156 to 157 °C |
| O=c1[nH]nc2c3c(cccc13)Oc1ccc(COP(=O)(O)O)cc1-2 | 246 to 252 °C |
| CS(=O)(=O)c1ccc(Oc2ccc(C(=O)c3ccccc3)cc2)cc1 | 164 to 165 °C |
| COC(=O)COc1cccc2c(CCO)c(CCOC(C)=O)oc12 | 80 to 81 °C |
| Cn1cncc1COCC(O)c1ccc(OCc2ccccc2)cc1 (stereo not given) | 148 to 150 °C |
| CCC#CCOc1ccc(C=O)cc1OC | 47 to 50 °C |
| CC(=O)N[C@H]1C(O)O[C@H](CO)[C@@H](F)[C@@H]1O (stereo not given in full) | 180 °C |
| CCOC(=O)Cc1c(C)nc(-c2ccccc2)nc1-c1cccc([N+](=O)[O-])c1 | 106 to 108 °C |
| COC(=O)Nc1cccc(CC(=O)NC(C)(C)C)c1 | 123 to 124 °C |
| Cc1nc(-c2ccc([N+](=O)[O-])cc2)c[nH]1 | 216 to 219 °C |
